# Activity calls are given as the source filed them.
# Assays:
# [1] = Luminescence Cell-Based Dose Retest to Confirm Inhibitors of Cancer Stem Cells. [Related pubchem assays (depositor defined):AID2717, AID2721]; assay type: functional; details: Homo sapiens
# [2] = Luminescence Cell-Based Dose Response HTS to Identify Activators of Luciferase Translation or Activity in H4 […] Cells. [Related pubchem assays: 1829 (Project Summary), 1814 (Primary HTS)]; assay type: functional
# [3] = test system: H4; assay: Luminescence Cell-Based Dose Response HTS to Identify Activators of 5'UTR Stem-Loop Driven Prion Protein mRNA Translation in H4 Neuroglioblastoma Cells. [Related pubchem assays: 1829 (Project Summary), 1814 (Primary HTS)]; assay type: functional; details: Homo sapiens
# [4] = cells; assay type: functional, cell-based
# [5] = target: T1, Corticotropin-releasing factor receptor 2/Corticotropin-releasing factor-binding protein (Homo sapiens, UniProt P24387+Q13324); assay: activators of CRF receptor 2 with binding protein – uHTS hits, confirmation (AID 602473); assay type: functional; details: read-out: EC50_Mean
# T1 sequence (Q13324 whole entry): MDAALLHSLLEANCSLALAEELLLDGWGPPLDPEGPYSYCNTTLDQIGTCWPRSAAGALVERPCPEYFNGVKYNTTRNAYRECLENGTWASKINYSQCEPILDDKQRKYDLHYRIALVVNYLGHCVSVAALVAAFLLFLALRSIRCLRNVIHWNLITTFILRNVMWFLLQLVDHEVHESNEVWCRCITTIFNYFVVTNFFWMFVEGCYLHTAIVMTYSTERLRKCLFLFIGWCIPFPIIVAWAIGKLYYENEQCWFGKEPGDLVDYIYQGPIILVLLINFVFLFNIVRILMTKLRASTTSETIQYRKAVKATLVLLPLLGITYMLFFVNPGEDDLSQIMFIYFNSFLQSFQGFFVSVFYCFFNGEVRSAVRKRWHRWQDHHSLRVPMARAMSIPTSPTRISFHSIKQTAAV
# T1 sequence (P24387 whole entry): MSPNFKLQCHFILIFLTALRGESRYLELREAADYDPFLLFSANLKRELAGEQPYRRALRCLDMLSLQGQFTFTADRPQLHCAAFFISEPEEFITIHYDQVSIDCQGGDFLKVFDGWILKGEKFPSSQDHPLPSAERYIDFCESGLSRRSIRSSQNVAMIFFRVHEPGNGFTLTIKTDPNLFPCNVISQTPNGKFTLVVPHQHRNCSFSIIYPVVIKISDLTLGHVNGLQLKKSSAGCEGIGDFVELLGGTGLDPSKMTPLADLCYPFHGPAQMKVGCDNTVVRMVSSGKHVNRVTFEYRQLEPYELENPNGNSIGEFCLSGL
# [6] = target: T1, Corticotropin-releasing factor receptor 2/Corticotropin-releasing factor-binding protein; assay: Dose Response confirmation of uHTS hits for small molecule antagonists of the CRF-binding protein and CRF-R2 receptor complex.; assay type: functional; details: read-out: IC50_Mean
# [7] = viability of uninfected HEp-2 cells – cell-based, HTS, cytotoxicity control for RSV inhibitor project, dose response (AID 2410); assay type: functional; details: human respiratory syncytial virus
# [8] = cells; assay type: functional
# [9] = microbe, parasite or virus in culture; assay type: functional; details: Mycobacterium tuberculosis
# [10] = viability of PTEN-deleted HCT116 cells – cell-based, HCT116 PTEN knockout, dose response (AID 1047); assay type: functional;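 also: HCT116 colon tumor cells with PTEN knocked out; cells exposed to compound for 60 hours before readout; potency for loss of cell viability measured by luminescence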
# [11] = test system: SN12K1; assay: cells; assay type: functional; details: Homo sapiens
# [12] = test system: P388/ADR; assay: cells; assay type: functional; details: Mus musculus
# [13] = test system: P388; assay: cells; assay type: functional; details: Mus musculus
# [14] = loss of viability in HepG2 cells – cell-based, CellTiter-Glo, cherry-picked, cytotoxicity control for Shn3 inhibitor project, dose response (AID 624134); assay type: functional
# [15] = luciferase reporter signal suppression in cells – H4 neuroglioma cells, luminescence, dose response (AID 1990); assay type: functional, cell-based
# [16] = Luminescence Cell-Based Dose Response HTS to Identify Inhibitors of 5'UTR Stem-Loop Driven Prion Protein mRNA Translation in H4 Neuroglioblastoma Cells. [Related pubchem assays: 1827 (Project Summary), 1813 (Primary HTS)]; assay type: functional
# [17] = NIH3T3 cell viability loss – ATP luminescence, mouse fibroblasts, counter-screen, dose response (AID 2010); assay type: functional, cell-based;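 also: cells exposed to compound for about 90 hours before reading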
# [18] = non-specific 3'UTR reporter inhibition in Clone20-Shn3RL – cell-based, Renilla luciferase, cherry-picked, counter-screen for Shn3 inhibitor project, dose response (AID 624133); assay type: functional
# [19] = Trypanosoma cruzi growth suppression in host cells – NIH3T3 host cells, beta-gal luminescence, confirmation (AID 2044); assay type: functional, cell-based;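 also: intracellular parasites grown in NIH/3T3 mouse fibroblasts as host cells; luminescent beta-galactosidase reporter signal from transgenic T. cruzi replicating inside host cells; inhibitors lower the luminescence signal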
# [20] = test system: INS1; assay: INS-1E survival protection against cytokine death – cell-based, luminescence, retest, dose response (AID 449756); assay type: functional; details: Rattus norvegicus;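 also: cell death triggered by IL-1 beta plus TNF-alpha plus IFN-gamma mixture; protective hits raise ATP signal compared with cytokine alone wells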
# [21] = alpha-synuclein stem-loop luciferase translation blockers – H4 neuroglioma cells, luminescence, confirmation (AID 1988); assay type: functional, cell-based
# [22] = reduction of Shn3 3'UTR-driven luciferase in osteoblasts – cell-based, Clone20 osteoblasts, firefly luciferase, cherry-picked, dose response (AID 624132); assay type: functional;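 also: firefly luciferase luminescence from reporter carrying the Shn3 3'UTR in osteoblasts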
structure (smiles),measurement,setting,value
C/C(NC(=O)c1cccc(F)c1)=C1/C(=O)C[C@@H]2[C@H]1C2(C)C,AC50,[1],1.24 µM (active)
same,EC50,[2],29.7 µM (active)
same,EC50,[3],17.8 µM (active)
CCc1nc(N2CCN(C(=O)c3ccco3)CC2)c2c3c(sc2n1)CCCC3,EC50,[4],> 350 µM (not active)
O=C(COc1ccc(S(=O)(=O)NC2CCCCC2)cc1Cl)NCc1cccnc1,EC50,[5],> 53 µM (inactive)
same,IC50,[6],> 47.1 µM (inactive)
Cc1ccc(NC(=O)CN(C)CC(=O)Nc2sc3c(c2C(N)=O)CCC3)cc1,CC50,[7],28.1 µM (active)
CCc1c(C)c2ccc(OCC(=O)OC)cc2oc1=O,IC50,[8],16.6 µM (active)
CCC(C)(C)c1ccc(OCC(=O)Nc2ccncc2)cc1,IC50,[8],8.95 µM (active)
O=C(Nc1ccc(N2CCOCC2)cc1)c1cc2c(s1)CCCCC2,CC50,[7],23.8 µM (active)
CN(CC(=O)Nc1ccc(C#N)cc1)Cc1ccc(Cl)c(Cl)c1,IC50,[8],42.3 µM (active)
COc1ccc(CN2C[C@H](Cc3ccccc3)[C@@H](CC(=O)Nc3ccccc3)C2=O)cc1,CC50,[7],22 µM (active)
CCOC(=O)c1cnc(SCc2cccc(C)c2)nc1N,CC50,[7],43.8 µM (active)
CCCN1CCc2c(sc(NC(=O)c3ccc(S(=O)(=O)N4CCCC4)cc3)c2C(N)=O)C1,EC50,[5],3.22 µM (active)
CCCn1c(N2CCN(Cc3ccc(Cl)cc3)CC2)nc2ccccc21,CC50,[9],> 40 µM (active)
CSc1ccccc1NC(=O)c1cc(CC(C)C)on1,EC50,[5],> 53 µM (inactive)
same,IC50,[6],> 47.1 µM (inactive)
NC(=O)c1cc(-c2csc(-c3cccnc3)n2)ccc1O,CC50,[7],22.7 µM (active)
CC1(Cc2ccc3c(c2)OCO3)NC(=O)NC1=O (stereo unspecified),EC50,[5],> 53 µM (inactive)
same,IC50,[6],> 47.1 µM (inactive)
Cc1nn(CCc2nn[nH]n2)c2nc(-c3ccc(Br)cc3)cc(C(F)(F)F)c12,CC50,[9],> 40 µM (active)
Cc1cc(=O)n2nc(N3CCC(C(=O)Nc4c(F)c(F)c(F)c(F)c4F)CC3)sc2n1,EC50,[5],> 53 µM (inactive)
same,IC50,[6],> 47.1 µM (inactive)
CCOC(=O)N1CCN(c2nc(N(c3ccccc3)c3ccccc3)nc(-n3ccnc3)n2)CC1,CC50,[9],> 40 µM (active)
CCNC(=O)COC(=O)c1ccc(-c2nc3ccccc3s2)s1,IC50,[8],5.44 µM (active)
COc1ccccc1NC(=O)c1cnc(SC)nc1,IC50,[8],49.4 µM (active)
CC(=O)Nc1cccc(-c2cc(-c3c(Cl)cccc3Cl)no2)c1,CC50,[7],18.3 µM (active)
CC(C)(C)N1CC2([N+](=O)[O-])CN(C(C)(C)C)CC([N+](=O)[O-])(C1)C2,EC50,[5],4.6 µM (active)
O=C(Nc1ccccc1)c1cc2n(n1)C(C(F)(F)F)CC(C1CC1)N2 (stereo unspecified),EC50,[2],5.46 µM (active)
same,EC50,[3],> 120 µM (not active)
CCOc1ccc(S(=O)(=O)N2CCN(C(=O)c3cc4c(s3)CCCC4)CC2)cc1,CC50,[9],> 40 µM (active)
same,CC50,[7],28.8 µM (active)
Cc1ccc(C(=O)N(Cc2sccc2C)C2CCS(=O)(=O)C2)cc1 (stereo unspecified),EC50,[5],> 53 µM (inactive)
same,IC50,[6],> 47.1 µM (inactive)
Cc1nn(Cc2ccccc2Cl)c2sc(C(=O)NCCCn3ccnc3)cc12,CC50,[9],> 40 µM (active)
S=C(NCCc1ccc(Cl)cc1)Nc1ccc(Cl)cc1Cl,EC50,[10],30.9 µM (active)
COc1ccc(-c2noc(-c3cc4ccccc4oc3=O)n2)cc1,IC50,[8],5.25 µM (active)
COc1cccc(CN2CCN(c3cccc(C(F)(F)F)c3)CC2)c1OC,EC50,[5],> 53 µM (inactive)
same,IC50,[6],> 47.1 µM (inactive)
CC(=O)CSc1ncnc2c1cnn2-c1ccccc1,CC50,[7],42.5 µM (active)
Cc1cccnc1N=C(S)NCCc1ccccc1,EC50,[2],21.7 µM (active)
same,EC50,[3],12.9 µM (inconclusive)
CC(C)N(C(=O)[C@H]1C[C@H](CC(=O)NCc2ccco2)C(=O)N2CCc3c([nH]c4cc(CCC(=O)N(C)C)ccc34)[C@]12C)C(C)C,EC50,[5],> 53 µM (inactive)
same,IC50,[6],> 47.1 µM (inactive)
COc1ccc(Cl)cc1C(=O)NNC(=O)COC(=O)c1cccs1,EC50,[5],> 53 µM (inactive)
same,IC50,[6],> 47.1 µM (inactive)
Cc1cc([N+](=O)[O-])c2ccccc2c1NS(=O)(=O)c1ccccc1,EC50,[5],> 53 µM (inactive)
same,IC50,[6],> 47.1 µM (inactive)
O=C(NCCCCCCNC(=O)N1CCCCCC1)N1CCCCCC1,EC50,[5],> 53 µM (inactive)
same,IC50,[6],> 47.1 µM (inactive)
COc1ccc(C2C(C)C(=O)C(C)C(c3ccc(OC)cc3)N2N=O)cc1 (stereo unspecified),GI50,[11],55.2 µM (inactive)
same,GI50,[12],> 100 µM (inactive)
O=C(CCCc1ccccc1)Nc1nncs1,EC50,[5],> 53 µM (inactive)
same,IC50,[6],> 47.1 µM (inactive)
Cc1cccc2nc3c(C(=O)NCCN(C)C)cccc3cc12,GI50,[13],0.292 µM (active)
same,GI50,[11],0.711 µM (active)
same,GI50,[12],0.474 µM (active)
CN(C)CCNC(=O)c1cccc2[nH]c(-c3ccc(Cl)cc3)nc12,GI50,[13],2.48 µM (inactive)
same,GI50,[11],3.48 µM (inactive)
same,GI50,[12],3.2 µM (inactive)
Nc1ncc(CN2CCCC2)c(-c2ccccc2O)n1,GI50,[13],> 100 µM (inactive)
same,GI50,[11],> 100 µM (inactive)
COc1cc(C2(c3ncc[nH]3)SSSCC2O)ccc1O (stereo unspecified),GI50,[13],18.7 µM (inactive)
same,GI50,[11],30.5 µM (inactive)
same,GI50,[12],17.8 µM (inactive)
CO[C@H]1C[C@@H]2CC[C@@H](C)[C@@](O)(O2)C(=O)C(=O)N2CCCC[C@H]2C(=O)O[C@H]([C@H](C)C[C@@H]2CC[C@@H](O)[C@H](OC)C2)CC(=O)[C@H](C)C=C(C)[C@@H](O)[C@@H](OC)C(=O)[C@H](C)C[C@H](C)/C=C/C=C/C=C1C,GI50,[13],0.1 µM (active)
same,GI50,[11],0.1 µM (active)
CC(NCCS(=O)(=O)O)C(=O)O (stereo unspecified),GI50,[13],> 100 µM (inactive)
same,GI50,[11],> 100 µM (inactive)
same,GI50,[12],> 100 µM (inactive)
COc1cccc2c1C(=O)c1c(O)c3c(c(O)c1C2=O)C[C@@](O)(C(C)O)C[C@@H]3OC1CC(N)C(O)C(C)O1 (stereo partly specified),GI50,[13],0.191 µM (active)
same,GI50,[11],0.0891 µM (active)
same,GI50,[12],36.6 µM (inactive)
CC(C)C1NC(=O)CC(c2ccccc2)N(N=O)C1c1ccccc1 (stereo unspecified),GI50,[13],70.1 µM (inactive)
same,GI50,[11],> 89.9 µM (inactive)
same,GI50,[12],44.5 µM (inactive)
O=C1C2=C(C3=NCCc4c[nH]c1c43)c1c(Br)cc(Br)cc1CCN2,GI50,[13],2.13 µM (inactive)
same,GI50,[11],3.65 µM (inactive)
same,GI50,[12],2.18 µM (inactive)
CO/C=C1\OC(=O)C=C1OC,GI50,[13],> 100 µM (inactive)
same,GI50,[11],> 100 µM (inactive)
same,GI50,[12],> 100 µM (inactive)
Cc1c2cc[n+](C)c(C)c2cc2c1[nH]c1ccccc12,GI50,[13],4.5 µM (inactive)
same,GI50,[11],2.21 µM (inactive)
same,GI50,[12],> 100 µM (inactive)
O=C(O)CNS(=O)(=O)c1ccc(NC(=O)Nc2ccccc2)cc1,GI50,[13],> 100 µM (inactive)
same,GI50,[11],> 100 µM (inactive)
same,GI50,[12],> 100 µM (inactive)
COc1cc2nc(N3CCN(c4cc(C)ccc4C)CC3)nc(N)c2cc1OC,AC50,[14],10.2 µM (active)
same,EC50,[15],> 120 µM (not active)
same,CC50,[9],3.41 µM (active)
same,EC50,[16],> 120 µM (not active)
same,EC50,[17],16.7 µM (active)
same,AC50,[18],12.7 µM (active)
same,EC50,[19],3.35 µM (active)
same,AC50,[20],7.37 µM (active)
same,EC50,[21],> 120 µM (not active)
same,AC50,[22],5.44 µM (active)
Cc1c2cc[n+](Cc3ccc(I)cc3)cc2c(C)c2c1[nH]c1ccccc12,GI50,[13],0.1 µM (active)
same,GI50,[11],0.208 µM (active)
same,GI50,[12],17.9 µM (inactive)

# From ChEMBL document CHEMBL1201862, “PubChem BioAssay data set” (2004)
